In patent US20260151457A1, “Peptides and Fragments for Treating Diabetes and Associated Metabolic Diseases” (Betavive Ltd., priority 2024, published 2026):

Tests used:
mice = test: Blood glucose concentration kinetics of IGF-2 vs. insulin in a glucose tolerance test; type: in vivo
Description: IGF-2 therefore provides an effect that mimics insulin within the body, and that effect is referred to herein as an “insulinomimetic” effect. […] More specifically, when 1 unit of insulin per kg was administered, the recovery in glucose levels began after two hours. But when 800 μg/kg of IGF-2 was administered, the recovery in glucose levels began after six hours. […] In this example, administering IGF-2 can provide better results than administering insulin with respect to blood glucose levels, even when only a single dose was used. Without being bound by this theory, it is possible that the IGF-2 combines with a number of binding proteins in the blood and its active free form is then released slowly from the complex.

STZ-treated mice [1] = test: Intraperitoneal glucose tolerance test on STZ-treated mice treated with IGF-2; type: in vivo
Description: In this experiment, four STZ-treated mice were treated with 12,000 μg/kg/day of IGF-2 (four injections of 3000 μg/kg/day) 5 days and two mice were treated for 10 days. A glucose tolerance test was performed 50 days post-treatment with IGF-2 by challenging the treated mice with a 2 grams/kg dose of glucose and determining the blood glucose level over a 180 minute time course. The blood glucose curves of the treated mice were compared to results for a saline control, and normal (nondiabetic) obese and normal (nondiabetic) lean mice based on published literature (Jorgensen et al., J. Am Assoc. Lab. Animal Sci 2017 56 (1): 95-97).

STZ-treated mice [2] = test: Pancreas histology and insulin immunohistochemistry in STZ-treated mice; type: in vivo
Description: FIG. 21 depicts pancreas histology results on STZ-treated mice. […] The non-control mice were treated once a day for 10 days with a 3000 μg/kg dose of IGF-2. The mice were sacrificed on day 35 and pancreas cells were assessed as being insulin positive or negative.

db/db mice = test: Serum insulin in db/db mice after long-term IGF-2 treatment; type: in vivo; details: 12,000 μg/kg daily for 68 days, measured 6.5 weeks after end of treatment
Description: In this experiment, one group of db/db mice (labeled FA X1) was injected with 3000 μg/kg of IGF-2 once a day for 68 days, a second group of db/db mice (labeled FA X4) was injected with a daily dose of 12000 μg/kg of IGF-2 divided in two injections per day for 68 days, and a third group of db/db mice was injected with saline. Serum insulin levels were measured 6.5 weeks after the end of the 68 day treatment. Treatment with the 12,000 μg/kg daily dose increased serum insulin levels by about 50% with respect to the control.

NOD mice [3] = test: Incidence of spontaneous autoimmune type 1 diabetes in NOD mice treated with IGF-2; type: in vivo
Description: Non-Obese Diabetic (NOD) mice are a polygenic model for spontaneous autoimmune type 1 diabetes (T1D). NOD mice have an elevated risk for development of autoimmune type 1 diabetes. Thus, NOD mice were used to determine whether treatment IGF-2 reduces spontaneous development of type 1 diabetes.
In this experiment, one group of NOD mice (right panel) was injected with 3000 μg/kg of IGF-2 on each of 76 consecutive days, and a second group of NOD mice (left panel) was injected with saline. […] More specifically, at the end of the 76 days of treatment, only two of the treated mice had developed high glucose levels.
FIG. 30A depicts how many NOD mice have developed autoimmune type I diabetes during an initial 66 days of treatment with IGF-2, and at various intervals post-treatment. In this experiment, one group of NOD mice was injected with 3000 μg/kg of IGF-2 on each of 66 consecutive days, and a second group of NOD mice was injected with saline.
In one exemplary experiment, NOD mice were treated with a 3000 μg/kg daily doses of IGF-2 for 150 days. ⅘ of the treated mice maintained normoglycemia compared to ¼ of the control mice. In another exemplary experiment, NOD mice were treated with a 3000 μg/kg daily dose of IGF-2 for 75 days with follow-up glucose measurements taken for an additional 90 days (during which IGF-2 was not administered). ⅝ of the treated mice maintained normoglycemia compared to 2/11 of the control mice. The average insulin secretion of the treated mice in both of these experiments was five times greater than the control mice.

NOD mice [4] = test: Islet cell staining for glucagon and insulin in NOD mice; type: in vivo; details: NOD mice treated with IGF-2 for 13 weeks
Description: FIG. 30D confirms the results shown in FIG. 30C and provides the number of cells staining positive for insulin in NOD mice treated with IGF-2 (right bar) versus untreated NOD mice (left bar).

β-MIN6 cells = test: Insulin secretion of β-MIN6 cells following glucose induction; type: cell-based, mouse; details: IGF-2 5 nM, 20 nM, 80 nM, 1 week treatment
Description: β-MIN6 cells serve as an in vitro model of mouse pancreatic islets. β-MIN6 cells were used as an in vitro model to measure the effects of treatment with IGF-2.

STZ-treated mouse islets = test: Insulin secretion from STZ-treated mouse islets; type: cell-based; details: islets treated with 2.5 mM STZ; IGF-2 50 nM and 500 nM, GLP-1 100 nM and 1000 nM; 48 hours
Description: Mouse islet cells were treated with 2.5 mM STZ and subsequently treated with either IGF-2 (FA) at 50 nM and 500 nM, or with GLP-1 at 100 nM and 1000 nM.

C57BL/6 STZ mice = test: Fasting blood glucose in STZ-induced diabetic C57BL/6 mice treated with IGF-2; type: in vivo; details: IGF-2 12,000 μg/kg daily on each of 12 consecutive days

Substance: insulin-like growth factor 2 [IGF-2]
- Glucose level after administration (mice; glucose tolerance test in mice): decreased
- Time after which the recovery in glucose levels began (mice; insulin 1 unit per kg, IGF-2 800 μg/kg, single dose): six
- Response to the glucose tolerance test (permanently cured mice) (STZ-treated mice [1]; 12,000 μg/kg/day for 5 or 10 days, test 50 days post-treatment, 2 grams/kg glucose, 180 minutes): fell between the glucose tolerance results from the literature for non-diabetic obese mice and non-diabetic lean mice
- Glucose levels in the glucose tolerance test (Mouse 01, not permanently cured) (STZ-treated mice [1]; 12,000 μg/kg/day, test 50 days post-treatment, 2 grams/kg glucose): higher than the normal obese mouse
- Number of IGF-2-treated mice permanently cured (STZ-treated mice [1]; six STZ mice treated with 12,000 μg/kg/day, four for 5 days and two for 10 days): Five
- Level of insulin in pancreas islets compared to a naïve mouse (IHC) (STZ-treated mice [2]; non-permanently cured mouse): lower level of insulin in its pancreas islets
- Increase in the number of functional beta cells (STZ-treated mice [2]; permanently cured mice, 3000 μg/kg once a day for 10 days, sacrificed on day 35): four
- Level of insulin in pancreas islets compared to a naïve mouse (IHC) (STZ-treated mice [2]; permanently cured mouse): higher level of insulin in its pancreas islets
- Increase in serum insulin levels with respect to the control (db/db mice): about 50%
- Fraction of the treated mice that maintained normoglycemia (NOD mice [3]; 3000 μg/kg daily for 75 days, follow-up for an additional 90 days): ⅝
- Fraction of the treated mice that maintained normoglycemia (NOD mice [3]; 3000 μg/kg daily for 150 days): ⅘
- Incidence of spontaneous autoimmune type 1 diabetes (NOD mice [3]; 3000 μg/kg on each of 66 consecutive days and post-treatment): significantly reduced
- Incidence of spontaneous autoimmune attack (NOD mice [3]; 3000 μg/kg on each of 76 consecutive days): reduced dramatically
- Number of treated mice that had developed high glucose levels (NOD mice [3]; at the end of the 76 days of treatment with 3000 μg/kg): two
- Islet cells (histological staining for glucagon and insulin) (NOD mice [4]): fully functional islet cells
- Insulin secretion following glucose induction (β-MIN6 cells): increases insulin secretion (following glucose induction) in a dose-dependent manner
- Insulin secretion (STZ-treated mouse islets): increased in a dose dependent manner
- Long-term improvements in blood glucose levels (C57BL/6 STZ mice): long-term improvements in blood glucose levels were obtained
